Where a SMILES comes first, the peptide text is derived from it. Bridges are numbered along the chain shown (N, C = ends). [ ]: non-standard residue; d: D form. The star is where a group is joined. Ileψ(thiazoline)Cys = CC[C@H](C)[C@H](N)C1=N[C@H](C(=O)*)CS1; dOrn = NCCC[C@@H](N)C(=O)O
Tests used:
[1] = test system: non-cariogenic streptococci, such as S. sanguis; assay: bacitracin selection in suspended solution format, growth measured by ATP luminescence; assay type: cell-based, Streptococcus sanguis; conditions: 0.5-1.0 U/ml bacitracin in BHI medium, FIG. 3
Excerpt: (§1) FIG. 3 illustrates the relationship between bacitracin concentration and effect on growth of several oral streptococci species as measured by ATP luminescence.
(§2) With reference to FIG. 1, the linear portion of the curves in each graph illustrates a range of measurements that can be used to accurately correlate ATP concentration and relative light units. FIG. 2 illustrates that the relationship of ATP content and viable cell number is linear during exponential phase of growth. However, ATP content becomes diminished during transition from exponential phase to […] of growth. […] Cultures tested include Streptococcus mutans ATCC 700610, Streptococcus mutans A TCC 25175, Streptococcus sanguis and Streptococcus sobrinus. Overnight cultures were prepared using BHI medium and then inoculum was transferred to fresh BHI medium in the presence (0.5 U/ml-10 U/ml) or absence of bacitracin. […] Thus, the presence of sucrose may represent a further improvement of the current CariScreen device, by 1) extending the effectiveness of bacitracin selection and by 2) increasing the likelihood or allowing all oral microorganisms to remain in an exponential phase of growth, which based on FIG. 2, represents an accurate determinant of bacterial number as measured by ATP.

cariogenic S. mutans = assay: as above; assay type: cell-based, Streptococcus mutans; conditions: 0.5-1.0 U/ml bacitracin in BHI medium, FIG. 3
Excerpt: as §1, §2

S. sobrinus = assay: as above; assay type: cell-based, Streptococcus sobrinus; conditions: 0.5-1.0 U/ml bacitracin in BHI medium, FIG. 3
Excerpt: as §1, §2

S. mutans in saliva = assay: bacitracin selection for S. mutans in pediatric saliva samples incubated in BHI media; assay type: cell-based, Streptococcus mutans; conditions: four hours of bacitracin treatment, 7% at time 0, FIG. 5
Excerpt: FIG. 5 illustrates the bacitracin-based selection for the highly cariogenic S. mutans species in the presence of non-mutans streptococci.
This example describes a clinical study, examining the application of bacitracin selection (and sucrose growth accelerant) on oral micro-organisms found in dental plaque and saliva. This study examines up to 50 patients, with 3-4 plaque specimens and one saliva specimen per patient, and assesses the correlation between ATP content (measured by CariScreen meter and Veritas luminometer), wet weight of plaque specimens, total protein measurement, and viable bacterial numbers (total bacteria, total oral streptococci, Streptococcus mutans, and total lactobacilli as assessed with the use of plating on blood agar, mitis-salivarius agar, mitis-salivarius agar supplemented with bacitracin ([…] w/v), and Rogasa agar, respectively). […] With continued reference to FIG. 5, with four hours of bacitracin treatment the percentage of S. mutans in saliva went from 7% at time 0 to 75%. With reference to FIG. 6, a subject's saliva was added to BHI media±bacitracin (0.5 units/ml), and then incubated at 37° C. in a 5% carbon dioxide atmosphere. At times 0, 1, 2, and 4 hours samples were measured for ATP-driven bioluminescence and plated onto blood agar plates to measure total bacteria numbers. […]

[2] = test system: oral streptococci, including cariogenic S. mutans and non-cariogenic S. salivarius and S. sanguis; assay: sucrose as accelerant of growth of oral streptococci, suspended bacteria; assay type: cell-based; conditions: varying sucrose concentrations, FIG. 4
Excerpt: (§3) FIG. 4 illustrates the effect of sucrose as a potential accelerant of growth of four different oral streptococci, increase of four different streptococci strains, including measurement of adherent bacteria, in response to varying sucrose concentrations.
as §2

S. mutans = assay: sucrose effect on adherence of bacteria in a biofilm on the culture vessel; assay type: cell-based, Streptococcus mutans; conditions: sucrose especially at 0.5-1%, FIG. 4
Excerpt: as §3, §2

SMILES	effect on growth [1]	effect on growth (cariogenic S. mutans)	effect on growth (S. sobrinus)	percentage of S. mutans in saliva (S. mutans in saliva)	effect on growth phase and yield [2]	effect on adherence in a biofilm coating the plastic surface of the culture vessel (S. mutans)
CC[C@H](C)[C@H](N)C1=N[C@H](C(=O)N[C@@H](CC(C)C)C(=O)N[C@H](CCC(=O)O)C(=O)N[C@H](C(=O)N[C@H]2CCCCNC(=O)[C@H](CC(N)=O)NC(=O)[C@@H](CC(=O)O)NC(=O)[C@H](Cc3cnc[nH]3)NC(=O)[C@@H](Cc3ccccc3)NC(=O)[C@H]([C@@H](C)CC)NC(=O)[C@@H](CCCN)NC2=O)[C@@H](C)CC)CS1 [bacitracin] ({Ileψ(thiazoline)Cys}-L[dE]IK[dOrn]I[dF]H[dD]N; lactam 4-C)	greatly inhibit	allows considerable break-through of growth	allows considerable break-through of growth	75%	–	–
OC[C@H]1O[C@@](CO)(O[C@H]2O[C@H](CO)[C@@H](O)[C@H](O)[C@H]2O)[C@@H](O)[C@@H]1O [sucrose]	–	–	–	–	extend the exponential phase of growth and promote increased yields at saturation	promote the increased adherance

From patent US20080057531A1, “SYSTEMS, KITS, AND METHODS FOR DETECTING CARIOGENIC BACTERIA AND ASSESSING RISK OF DENTAL CARIES” (Oregon Health and Science University, priority 2006, published 2008)
